molecular target: Tyrosine-protein kinase Lck (Homo sapiens, UniProt P06239)
Sequence (P06239 whole entry): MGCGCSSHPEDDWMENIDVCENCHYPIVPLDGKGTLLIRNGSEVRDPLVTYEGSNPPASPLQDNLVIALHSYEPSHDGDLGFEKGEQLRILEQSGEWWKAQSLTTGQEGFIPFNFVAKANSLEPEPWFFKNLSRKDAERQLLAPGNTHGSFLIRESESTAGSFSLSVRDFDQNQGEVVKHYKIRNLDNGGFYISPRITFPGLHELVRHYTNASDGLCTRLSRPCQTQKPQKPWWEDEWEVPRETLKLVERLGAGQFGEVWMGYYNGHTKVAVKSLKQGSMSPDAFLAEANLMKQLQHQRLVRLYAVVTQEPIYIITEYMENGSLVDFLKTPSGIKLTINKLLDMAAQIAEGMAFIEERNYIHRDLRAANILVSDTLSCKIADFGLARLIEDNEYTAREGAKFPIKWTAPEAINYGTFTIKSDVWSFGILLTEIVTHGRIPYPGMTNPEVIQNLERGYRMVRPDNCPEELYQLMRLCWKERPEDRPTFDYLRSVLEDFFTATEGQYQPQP
Description: Inhibitory activity against recombinant p56 Lck tyrosine kinase expressed as a His-tagged protein in insect cells using a baculovirus expression system

Compound | IC50 [µM]
Cc1cc(C)c(Nc2nc3ccccc3n3cncc23)c(C)c1 | 0.04
Cc1ncc2c(Nc3ccccc3Br)nc3ccccc3n12 | 0.18
Cc1ncn2c1c(Nc1ccccc1Cl)nc1ccccc12 | 0.03
O=C(Nc1nc2ccccc2n2cncc12)c1ccccc1Br | 0.06
Cc1cccc(Cl)c1Nc1nc2ccccc2n2cncc12 | 0.009
Brc1cccc(Br)c1Nc1nc2ccccc2n2cncc12 | 0.05
Brc1ccccc1Nc1nc2ccccc2n2ccnc12 | > 50
c1ccc(CNc2nc3ccccc3n3cncc23)cc1 | > 12.5
c1ccc2c(c1)nc(NC1CC1)c1cncn12 | 3.17
Brc1ccccc1Oc1nc2ccccc2n2cncc12 | 3.7
CCc1cccc(CC)c1Nc1nc2ccccc2n2cncc12 | 1.69
Cc1cc(C)c(Nc2nc3ccccc3n3cncc23)c(Cl)c1 | 0.03
COc1ccc2c(nc(Nc3c(C)cccc3Cl)c3cncn32)c1OC | 0.002
c1cncc(Nc2nc3ccccc3n3cncc23)c1 | 0.82
COc1ccccc1Nc1nc2ccccc2n2cncc12 | 5.52
Brc1ccccc1Nc1nc2ccccc2n2cnc(-c3ccccc3)c12 | > 12.5
CCCCCCNc1nc2ccccc2n2cncc12 | > 12.5
Brc1ccccc1Sc1nc2ccccc2n2cncc12 | > 12.5
c1ccc2c(c1)nc(NC1CCCCC1)c1cncn12 | 3.17

Further lines, results first:

IC50 [µM] | Compound
0.0062 | COc1ccc2c(nc(Nc3c(C)cccc3Cl)c3cnc(CO)n32)c1OC
0.36 | Fc1cccc(F)c1Nc1nc2ccccc2n2cncc12
> 12.5 | Cc1ccccc1C(=O)Nc1nc2ccccc2n2cncc12
0.06 | Clc1ccccc1Nc1nc2ccccc2n2cncc12
0.053 | COc1ccc2c(nc(Nc3c(C)cccc3Cl)c3cnc(C(C)O)n32)c1OC (stereo not drawn)
> 12.5 | c1ccc2c(c1)nc(Nc1ccncc1)c1cncn12
0.24 | Cc1ccc(Nc2nc3ccccc3n3cncc23)c(Cl)c1
0.016 | Cc1cccc(C)c1Nc1nc2ccccc2n2cncc12
0.01 | COc1ccc2c(nc(Nc3c(C)cccc3Cl)c3cnc(C=O)n32)c1OC
0.238 | COc1ccc2c(nc(Nc3c(C)cccc3Cl)c3cnc(C(O)C(C)C)n32)c1OC (stereo not drawn)
1.33 | Fc1cccc(Nc2nc3ccccc3n3cncc23)c1
0.665 | CCNC(=O)c1ncc2c(Nc3c(C)cccc3Cl)nc3c(OC)c(OC)ccc3n12
0.0043 | COc1ccc2c(nc(Nc3c(C)cccc3Cl)c3cnc(/C=N/O)n32)c1OC
0.009 | Clc1cccc(Cl)c1Nc1nc2ccccc2n2cncc12
2.68 | CCCNc1nc2ccccc2n2cncc12
> 12.5 | CN(c1ccccc1Cl)c1nc2ccccc2n2cncc12
> 12.5 | Brc1ccc(Nc2nc3ccccc3n3cncc23)cc1
0.069 | COc1ccc2c(nc(Nc3c(C)cccc3Cl)c3cnc(CCCO)n32)c1OC
0.89 | c1ccc(Nc2nc3ccccc3n3cncc23)cc1
0.0074 | COc1ccc2c(nc(Nc3c(C)cccc3Cl)c3cnc(C)n32)c1OC
> 12.5 | O=[N+]([O-])c1ccccc1Nc1nc2ccccc2n2cncc12
4.39 | Clc1cccc(CCNc2nc3ccccc3n3cncc23)c1
0.81 | O=C(Nc1nc2ccccc2n2cncc12)c1c(Cl)cccc1Cl
> 12.5 | Cc1cccc(C)c1-c1nc2ccccc2n2cncc12
0.39 | Fc1ccccc1Nc1nc2ccccc2n2cncc12

test system: T-cell; assay: Compound was tested for potency against anti-CD3/anti-CD28 induced PBL proliferation of human peripheral blood T-cells

Compound | IC50 [µM]
Cc1cccc(Cl)c1Nc1nc2ccccc2n2cncc12 | 7
Cc1cccc(C)c1Nc1nc2ccccc2n2cncc12 | 3
Brc1ccccc1Nc1nc2ccccc2n2cncc12 | 17
COc1ccc2c(nc(Nc3c(C)cccc3Cl)c3cncn32)c1OC | 0.67

Source: ChEMBL document CHEMBL1135109, “Discovery and initial SAR of imidazoquinoxalines as inhibitors of the Src-family kinase p56(Lck)” (Bioorg Med Chem Lett, 2002)
